Patent US5932217A, “Peptides which inhibit adhesion between leukocytes and endothelial cells” (priority 1994, dated 1999)

Assays:
[1] = system: human umbilical vein endothelial cells; test: Adherence of neutrophils to cultured activated endothelial cells; format: cell-based
Procedure: Human umbilical vein endothelial cells (HUVEC, first passage, Clonetics, San Diego, Calif.) were subcultured at confluence into Terasaki tissue culture wells. After 24 hours, confluent monolayers were used for adherence assays. Monolayers were stimulated with 10 ng/ml TNF alpha (Boehringer Mannheim, Indianapolis, Ind.) at 37° C. for four hours. 30 μl of human neutrophils (10^6 /ml) were labeled with fluorescein by the method of Lo et al. (1991), J. Exp. Med. 173 1493-1500, and preincubated for 15 minutes at 37° C. with 20 μl of peptides (0.5 mM in HAP) or HAP (phosphate buffered saline containing 0.5 mg/ml human serum albumin, 3 mM glucose, and 0.3 U/ml aprotinin) as a control buffer. For some experiments, endothelial cells ere pretreated from 10 minutes with Factor X or antibodies against Factor X receptor (EPR-1; Altieri et al. (1990), J. Immunol. 145, 246-253) 12H1 and 9D4 (obtained from Dr. D. Altieri, Scripps Research Institute, LaJolla, Calif.) and then washed. Neutrophils were allowed to adhere to the monolayer for 15 mins. at 37° C. and unbound cells were removed by submersion of the plate in PBS buffer. The number of adherent neutrophils was counted in a 40× microscope field and expressed as a percentage of adherence in control wells with neutrophils treated with HAP buffer alone. The mAb IB4 against CD18 (50 μg/ml; Merck Inc., Rahway, N.J.) served as a positive control.
The ability of FHA peptides and anti-CD18 or anti-Factor X receptor antibodies to interact cooperatively to inhibit neutrophil adherence to endothelial cells was assessed by measuring neutrophil adherence to endothelial cells in the presence of antibody as well as antibody plus peptide. Anti-CD18 mAb IB4 was added to leukocytes at 10 μg/ml 10 min before the assay. Anti-Factor X receptor mAb 12H1 (10 μl of ascites) or 9D4 (10 μg/ml) were added to the endothelial cell monolayers 10 min before the assay. The peptides were added at 5 μg/ml. The results are shown in Table 8 where the numerical values are in % of control binding.
The procedures for determining the neutrophil adherence to cultured endothelial cells and the transendothelial migration of neutrophils were identical with those of Example 9. Control values were the same as those shown in Example 9.

[2] = system: rabbits challenged intracisternally with pneumococcus strain R6; test: Rabbit model for meningitis, intravenous FHA or peptides; format: in vivo; settings: for Lactate / Protein: CSF at 6 hours
Procedure: The rabbit model was performed according to an established protocol. Specific pathogen free, New Zealand white rabbits (2 kg; Hare Marland, Nutley, N.J.) were anesthetized with valium (2.5 mg/kg, subcutaneously, Hoffman-LaRoche, Nutley, N.J.), ketamine (35 mg/kg, intramuscularly, Aveco, Fort Dodge, Iowa) and xylazine (5 mg/kg, intramuscularly, Miles Laboratories, Shawnee, Kans.) and a helmet of dental acrylic was affixed to the calvarium. Twenty four hours later, the rabbits were anesthetized with ethyl carbamate (1.75 g/kg; Aldrich Chemical Co., Milwaukee, Wis.) and pentobarbital (15 mg/kg; Abbott Laboratories, Abbott Park, Ill.) and placed in a stereotaxic frame. A spinal needle was introduced into the cisterna magna and 300 μl of CSF was withdrawn. The animals were challenged intracisternally with 10^8 heat killed, unencapsulated pneumococcus strain R6 introduced in 200 μl of saline (time 0). One hour later, animals were treated with peptides dissolved in 1 ml of saline by intravenous injection into the right marginal ear vein. The concentration of FHA was 0.1 μM and that of the FHA Ia, Factor X II, and scrambled FHA II peptides was 10 μM. For the acetyl-FHA II, acetyl/amide-FHA II, dimer of FHA II and trimer of FHA II peptides, the concentration was 10^-3 μM. The concentration of FHA II is given in the results section. Samples of CSF were withdrawn at hourly intervals after pneumococcal inoculation and leukocyte density was measured using a cell counter (Coulter Electronics Inc., Hialeah, Fla.). CSF samples were centrifuged at 10,000×g for 5 minutes and the supernatant was stored at -70° C. until assayed for protein concentration using the bicinchoninic acid method (BCA Kit, Pierce Chemical Co., Rockford Ill.) and for lactate concentration (Lactate Detection Kit, Sigma, St. Louis, Mo.). Statistically significant differences between treatments were determined by a one way analysis of variance test.
The anti-inflammatory effects of the administered peptides were assessed in the rabbit model for meningitis by the procedures described in Example 10. The animals received 1 ml of 1 uM peptide intravenously. In a slight departure from the protocol described in Example 10, samples of blood were drawn from the left marginal ear vein 30 minutes after the administration of the peptides to determine peripheral leukocyte concentrations.

| Substance | inhibition of neutrophil adherence to stimulated HUVEC, comparison in words ([1]; peptides 0.5 mM, FIG. 17) | leukocytes/μl CSF ([2]; 6 hours post-pneumococcal challenge, 10 nmoles i.v.) [cells/μl] | Lactate ([2]; FHA 0.1 μM, peptides 10 μM) [mg/100 ml] | Protein ([2]; FHA 0.1 μM, peptides 10 μM) [mg/ml CSF] | concentration at which loss of activity (≤20% inhibition) occurred [1] | maximal inhibition of neutrophil attachment ([1]; FIG. 25B) | inhibition of adherence of human neutrophils to cultured endothelial cells ([1]; Native FHA 50 ug/ml (0.2 uM), FHA peptide C 1 mg/ml (0.2 mM)) [%] | reduction of neutrophil adherence to stimulated HUVEC ([1]; native FHA 25 μg/ml=0.3 μM, mAb IB4 50 μg/ml) [%] | Total protein in CSF ([2]; 6 hours after intracisternal inoculation of pneumococci) [mg/mL] | mean leukocyte concentration/μl CSF ([2]; 7 hours after challenge, 10^-3 μM i.v.) | mean leukocyte concentration/μl CSF ([2]; 7 hours after challenge, FHA 0.1 μM (25 μg per 2 kg), peptides 10 μM, i.v.) | mean leukocyte density/μl CSF ([2]; 7 hours after challenge, FHA 0.1 μM (25 μg/animal), peptides 1 ml of 1 uM i.v.) [cells/μl CSF] | Total protein in CSF ([2]; 7 hours after intracisternal inoculation of pneumococci) [mg/mL] | reduction of CSF leukocytosis ([2]; 7 hours, FHA 0.1 μM, peptides 10 μM) [%] | anti-inflammatory activity at reduced concentration ([2]; concentrations reduced from 10 to 0.1 μM, FIG. 21) | inflammation, numbers of leukocytes in the cerebrospinal fluid ([2]; intravenous, FIG. 5) |
| --- | --- | --- | --- | --- | --- | --- | --- | --- | --- | --- | --- | --- | --- | --- | --- | --- |
| Ac-ETKEVDG-NH2 [Acetyl/Amide-FHA II] | significantly enhanced | 3011±684 | 24.3 ± 3.2 | 1.2 ± 0.6 | – | – | – | – | – | – | – | – | – | – | – | – |
| Filamentous hemagglutinin [native FHA] | – | – | 25.0 ± 5.3 | 1.3 ± 0.3 | 10^-3 μM | ~ 50% | 51±7 | 51±8 | 1.70 ± 0.33 | ineffective | 2096±450 /μl CSF | 2096±450 | 1.86 ± 0.76 | > 60 | more potent anti-inflammatory activity than the corresponding Factor X peptide II | decreases inflammation |
